US10421765B2, “Tetrahydropyrido[4,3-d]pyrimidine inhibitors of ATR kinase” (Board of Regents, The University of Texas System, priority 2017, dated 2019)
Where two headings read alike, the source gives them in different places.

What was measured:
[1] = test system: ATR-driven phosphorylation of Chk1 kinase at Serine 345 in HT-29 colorectal adenocarcinoma cells; experiment: pCHK1 cellular assay (CHK1 p-Ser345 AlphaScreen SureFire); type: cell-based; conditions: 4-nitroquinoline N-oxide 12 uM, read-out: Cell IC50 (pCHK1 IC50 values)
Method: Inhibitors of ATR kinase are effective at inhibiting the ATR-driven phosphorylation of the downstream target Chk1 kinase at Serine 345, following the addition of 4-nitroquinoline N-oxide, a chemical used to induce DNA damage. Cellular IC50 for the inhibitors of ATR described herein were measured in HT-29 colorectal adenocarcinoma cells. HT-29 cells were routinely maintained in McCoy's 5A media (ATCC Catalog #30-2007) supplemented with 10% fetal bovine serum (Sigma Catalog #F2442) and 1× Penicillin-Streptomycin (Gibco Catalog #15140-122) using a humidified incubator (37° C., 5% CO2, and ambient O2).
In preparation for the CHK1 (p-Ser345) ALPHASCREEN® SUREFIRE® assay, cells were harvested and resuspended in McCoy's 5A media supplemented with 10% fetal bovine serum and 1× Penicillin-Streptomycin. Cells were seeded onto a 384-well black CELLSTAR® Tissue Culture Plate (VWR Catalog #89085-314) at a density of 13,000 cells/well in a volume of 40 uL. The microplate was incubated overnight (approximately 20 hours) at 37° C. with 5% CO2 and ambient O2. Stock solutions of the test compounds were prepared in 100% DMSO (Sigma, Catalog #D2650) and serially diluted 1:3 using 100% DMSO. Compounds were additionally diluted 1:33 in culture medium, and 10 ul/well were transferred to the tissue culture plate. Following the compound addition the microplate was incubated at 37° C. for 90 minutes. 10 uL of 4-nitroquinoline N-oxide (Sigma Aldrich Catalog #N8141-1G) diluted in media (final concentration 12 uM) were added to the tissue culture plate followed by a 120 minute incubation at 37° C. The cells were then washed with PBS and lysed using 10 uL/well SUREFIRE® Kit lysis buffer diluted to 1× in water (PerkinElmer Catalog #TGRCHK1S50K), with mixing on an orbital shaker at 500 rpm for 20 min at RT. Lysates were frozen at −20° C. overnight.
4 uL/well of lysate was then transferred from the tissue culture plate to a 384-well, white, low volume, PROXIPLATE™ (PerkinElmer Catalog #600828). 5 uL/well of the acceptor bead solution, prepared by diluting SUREFIRE® Kit activation buffer (PerkinElmer Catalog #TGRCHK1S50K) and ALPHASCREEN® Protein A acceptor beads (PerkinElmer Catalog #6760617R) in SUREFIRE® Kit reaction buffer (PerkinElmer Catalog #TGRCHK1S50K), were added to the lysates under subdued light and incubated at room temperature for 120 min. 2 uL/well of the donor bead solution, prepared by diluting ALPHASCREEN® Streptavidin donor beads (PerkinElmer Catalog #6760617R) in SUREFIRE® Kit dilution buffer (PerkinElmer Catalog #TGRCHK1S50K), were added under subdued light and incubated at room temperature for an addition 120 minutes. The pCHK1 ALPHASCREEN® signal was measured using an ENVISION® plate reader (PerkinElmer). IC50 values were calculated using a four-parameter logistic curve fit using Genedata Screener software. Percent of control for each compound concentration was calculated by the following formula: 100*(Compound−Min)/(Max−Min) where “Max” is the high control, DMSO, and “Min” is the low control, 5 uM ATR inhibitor.

ATR/ATRIP complex = ATR/ATRIP complex (Homo sapiens (Human), UniProt Q13535); experiment: ATR/ATRIP enzymatic assay (Caliper-based); type: biochemical; conditions: FAM-labeled RAD17 peptide, ATP
Method: Human full-length FLAG-TEV-ATR and His6-ATRIP were co-expressed in HEK293 cells. The cell pellet (20 g) was harvested and lysed in 100 mL of lysis buffer (20 mM Tris-HCl pH 7.5 at room temperature, 137 mM NaCl, 10% glycerol, 1 mM DTT, 1% (v/v) Tween-20, 0.1% (v/v) NP-40, complete protease inhibitor cocktail tablets, phosphatase inhibitor cocktail tablets, 2 mM MgCl2, 0.2 mM EDTA, and 1 mM ATP). After sonication and centrifugation, the supernatant was incubated at 4° C. for 3 hours with 1 mL of anti-FLAG resin (Sigma catalog #A2220) that had been pre-equilibrated in buffer A (20 mM Tris-HCl pH 7.5 at room temperature, 137 mM NaCl, 10% glycerol, 1 mM DTT, 2 mM MgCl2, and 0.2 mM EDTA). The sample was loaded into a column, and then washed with buffer A three times. Protein was subsequently eluted with 2 ml of buffer B (buffer A+200 μg/ml 3×FLAG peptide).
The ability of new chemical matter to inhibit the ATR catalytic activity in this ATR/ATRIP complex was assessed using a Caliper-based assay. A 2x enzyme solution (i.e., 4 nM enzyme) was prepared using 1× Kinase Reaction Buffer (25 mM HEPES pH 8, 0.0055% Brij-35, 10 mM MnCl2, and 1 mM DTT). A 2x peptide solution was then prepared consisting of 10 uM FAM-labeled RAD17 peptide (GL Biochem, catalog #524315) in 1× Kinase Reaction Buffer supplemented with 2 μM ATP. 10 μL of the 2× enzyme solution was transferred to an assay plate containing 60 nL of test compound (from a 3× serial dilution) in 100% DMSO. Following a 30 minute incubation at 28° C., 10 μL of the 2× peptide solution was then transferred to the same assay plate. The reaction was allowed to incubate at 28° C. for 6 hours. After adding […] of stop buffer (100 mM HEPES pH 7.5, 0.015% Brij-35, 0.2% Coating-3 Reagent (PerkinElmer, catalog #PN760050), and 50 mM EDTA), data were collected on a Caliper instrument. Conversion values were converted to inhibition values via the following equation: % inhibition=(max−conversion)/(max−min)*100, whereby “max” corresponds to the DMSO control and “min” corresponds to the low control. IC50 values were calculated using the following equation in XLFit: Y=Bottom+(Top−Bottom)/1+(IC50/X)^HillSlope).

[2] = Homo sapiens, HT-29, HT-29 cells
[3] = read-out: ATR/ATRIP Enzyme IC50
[4] = estimated range, read-out: ATR/ATRIP Enzyme IC50 (estimated class)

Sequence of ATR/ATRIP complex (Q13535 whole entry): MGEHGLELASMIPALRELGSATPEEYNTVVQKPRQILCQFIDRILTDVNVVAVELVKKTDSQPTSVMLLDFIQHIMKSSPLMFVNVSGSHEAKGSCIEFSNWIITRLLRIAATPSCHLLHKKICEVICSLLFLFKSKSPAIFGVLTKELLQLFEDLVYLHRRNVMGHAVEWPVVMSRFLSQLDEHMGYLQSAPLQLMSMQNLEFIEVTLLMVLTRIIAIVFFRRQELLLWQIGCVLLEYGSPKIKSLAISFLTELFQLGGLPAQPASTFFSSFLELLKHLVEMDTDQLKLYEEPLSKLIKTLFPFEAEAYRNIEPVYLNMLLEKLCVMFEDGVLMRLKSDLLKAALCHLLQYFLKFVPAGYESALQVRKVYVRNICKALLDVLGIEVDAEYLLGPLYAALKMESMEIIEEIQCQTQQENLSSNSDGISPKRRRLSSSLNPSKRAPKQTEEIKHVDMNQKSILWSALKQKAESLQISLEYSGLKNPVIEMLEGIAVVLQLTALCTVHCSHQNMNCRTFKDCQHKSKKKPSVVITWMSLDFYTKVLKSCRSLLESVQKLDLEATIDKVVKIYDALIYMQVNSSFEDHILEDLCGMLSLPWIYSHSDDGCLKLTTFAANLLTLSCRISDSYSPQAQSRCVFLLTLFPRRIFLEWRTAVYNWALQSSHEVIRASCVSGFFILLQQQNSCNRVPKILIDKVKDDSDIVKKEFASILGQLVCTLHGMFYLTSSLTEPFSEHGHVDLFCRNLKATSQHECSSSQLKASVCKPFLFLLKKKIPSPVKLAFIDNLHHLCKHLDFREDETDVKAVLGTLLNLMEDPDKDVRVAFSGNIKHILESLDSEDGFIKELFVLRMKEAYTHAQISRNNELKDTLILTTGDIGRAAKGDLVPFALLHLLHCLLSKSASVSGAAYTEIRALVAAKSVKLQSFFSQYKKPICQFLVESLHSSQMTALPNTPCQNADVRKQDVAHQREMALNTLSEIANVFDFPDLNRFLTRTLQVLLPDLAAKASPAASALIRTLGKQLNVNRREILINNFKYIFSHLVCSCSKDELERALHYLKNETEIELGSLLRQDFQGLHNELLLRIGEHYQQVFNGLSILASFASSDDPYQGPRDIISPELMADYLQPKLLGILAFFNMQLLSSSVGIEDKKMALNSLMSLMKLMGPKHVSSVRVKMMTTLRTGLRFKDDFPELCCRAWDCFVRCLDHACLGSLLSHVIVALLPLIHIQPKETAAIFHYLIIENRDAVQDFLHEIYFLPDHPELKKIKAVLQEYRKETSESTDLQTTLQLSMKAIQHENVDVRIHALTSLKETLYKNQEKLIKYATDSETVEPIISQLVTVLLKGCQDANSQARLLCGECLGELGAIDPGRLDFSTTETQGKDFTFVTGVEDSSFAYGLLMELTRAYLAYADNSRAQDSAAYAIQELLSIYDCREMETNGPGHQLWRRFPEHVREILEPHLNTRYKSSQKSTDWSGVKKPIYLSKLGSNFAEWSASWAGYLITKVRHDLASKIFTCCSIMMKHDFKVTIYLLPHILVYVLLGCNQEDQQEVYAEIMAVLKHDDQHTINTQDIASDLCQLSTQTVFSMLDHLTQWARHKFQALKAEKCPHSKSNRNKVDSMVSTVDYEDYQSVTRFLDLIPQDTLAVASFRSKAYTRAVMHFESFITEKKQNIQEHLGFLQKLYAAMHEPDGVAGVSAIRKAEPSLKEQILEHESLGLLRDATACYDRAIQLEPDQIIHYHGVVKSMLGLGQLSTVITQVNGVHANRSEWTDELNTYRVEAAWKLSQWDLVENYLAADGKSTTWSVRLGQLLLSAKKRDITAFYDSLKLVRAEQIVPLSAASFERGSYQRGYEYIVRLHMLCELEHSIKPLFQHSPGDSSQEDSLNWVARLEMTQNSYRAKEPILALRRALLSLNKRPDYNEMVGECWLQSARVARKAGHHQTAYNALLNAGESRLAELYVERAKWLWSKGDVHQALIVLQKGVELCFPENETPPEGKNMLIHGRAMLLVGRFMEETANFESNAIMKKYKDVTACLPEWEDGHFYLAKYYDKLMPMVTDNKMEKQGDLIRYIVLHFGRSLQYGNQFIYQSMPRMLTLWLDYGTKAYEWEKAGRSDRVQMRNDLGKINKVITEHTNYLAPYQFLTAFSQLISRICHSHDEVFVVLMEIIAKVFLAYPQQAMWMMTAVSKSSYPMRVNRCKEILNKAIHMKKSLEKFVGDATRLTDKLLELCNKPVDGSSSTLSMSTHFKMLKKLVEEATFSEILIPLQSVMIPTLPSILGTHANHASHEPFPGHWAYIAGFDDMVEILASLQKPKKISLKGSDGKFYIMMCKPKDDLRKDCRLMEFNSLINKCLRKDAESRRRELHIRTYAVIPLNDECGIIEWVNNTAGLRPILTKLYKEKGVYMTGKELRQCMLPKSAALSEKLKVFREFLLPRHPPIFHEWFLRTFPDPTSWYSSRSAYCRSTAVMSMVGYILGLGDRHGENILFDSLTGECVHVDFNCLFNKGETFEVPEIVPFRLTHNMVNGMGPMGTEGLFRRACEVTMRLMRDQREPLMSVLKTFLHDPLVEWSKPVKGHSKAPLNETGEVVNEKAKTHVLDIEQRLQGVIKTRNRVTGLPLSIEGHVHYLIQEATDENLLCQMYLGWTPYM
Sequence of ATR/ATRIP complex (Q8WXE1 whole entry partner): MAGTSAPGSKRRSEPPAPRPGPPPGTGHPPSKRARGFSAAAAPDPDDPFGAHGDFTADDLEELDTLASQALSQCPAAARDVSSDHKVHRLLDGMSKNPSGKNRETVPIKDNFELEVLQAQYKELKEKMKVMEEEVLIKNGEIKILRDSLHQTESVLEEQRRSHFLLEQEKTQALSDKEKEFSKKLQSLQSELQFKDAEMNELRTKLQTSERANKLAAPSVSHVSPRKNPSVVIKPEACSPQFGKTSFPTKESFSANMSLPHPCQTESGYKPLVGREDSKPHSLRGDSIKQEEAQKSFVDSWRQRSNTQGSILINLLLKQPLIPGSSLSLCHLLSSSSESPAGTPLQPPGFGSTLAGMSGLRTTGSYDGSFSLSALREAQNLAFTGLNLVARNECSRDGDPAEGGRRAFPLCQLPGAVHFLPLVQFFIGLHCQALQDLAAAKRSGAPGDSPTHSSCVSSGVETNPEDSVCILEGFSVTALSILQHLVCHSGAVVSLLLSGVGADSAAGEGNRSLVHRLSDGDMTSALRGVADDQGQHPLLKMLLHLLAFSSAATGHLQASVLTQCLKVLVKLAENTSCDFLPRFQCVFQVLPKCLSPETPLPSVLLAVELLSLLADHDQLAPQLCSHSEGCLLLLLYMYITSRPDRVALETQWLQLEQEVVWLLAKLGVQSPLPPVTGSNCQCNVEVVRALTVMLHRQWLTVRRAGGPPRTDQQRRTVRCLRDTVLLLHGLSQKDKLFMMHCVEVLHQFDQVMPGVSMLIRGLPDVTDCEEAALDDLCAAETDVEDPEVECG

| IC50 [1, 2] | IC50 (ATR/ATRIP complex; [3]) | IC50 (ATR/ATRIP complex; [4]) | IC50 ([1]; HT-29 cells) | SMILES |
| --- | --- | --- | --- | --- |
| 0.052 µM | 0.773 µM |  |  | Cc1cc(N2Cc3c(ncnc3C3CCN(S(C)(=O)=O)CC3)C[C@H]2C)c2cc[nH]c2n1 [Example 56, (R)-7-methyl-6-(6-methyl-1H-pyrrolo[2,3-b]pyridin-4-yl)-4-(1-(methylsulfonyl)piperidin-4-yl)-5,6,7,8-tetrahydropyrido[4,3-d]pyrimidine] |
| 0.02 µM | 0.237 µM |  |  | C[C@@H]1Cc2ncnc(N3CC[C@@H](S(C)(=O)=O)C3)c2CN1c1cc(Cl)nc2[nH]ccc12 [Example 87, (R)-6-(6-chloro-1H-pyrrolo[2,3-b]pyridin-4-yl)-7-methyl-4-((R)-3-(methylsulfonyl)-pyrrolidin-1-yl)-5,6,7,8-tetrahydropyrido[4,3-d]-pyrimidine] |
| 0.01 µM | 0.087 µM |  |  | C[C@@H]1Cc2ncnc(N3CCC[C@@H](C(C)(C)O)C3)c2CN1c1cc(Cl)nc2[nH]ccc12 [Example 70, 2-((R)-1-((R)-6-(6-chloro-1H-pyrrolo[2,3-b]-pyridin-4-yl)-7-methyl-5,6,7,8-tetrahydropyrido-[4,3-d]pyrimidin-4-yl)-piperidin-3-yl)propan-2-ol] |
| 0.218 µM | 0.966 µM |  |  | C[C@@H]1Cc2ncnc(N3CCC(S(C)(=N)=O)CC3)c2CN1c1cc(Cl)nc2[nH]ccc12 (stereo partly drawn) [Example 58, (1-((R)-6-(6-chloro-1H-pyrrolo[2,3-b]pyridin-4-yl)-7-methyl-5,6,7,8-tetrahydropyrido[4,3-d]pyrimidin-4-yl)piperidin-4-yl)(imino)(methyl)-λ^6-sulfanone] |
| 0.057 µM |  | 1 to 10 µM |  | C[C@@H]1Cc2ncnc(N3CCN(S(C)(=O)=O)C(C)(C)C3)c2CN1c1cc(Cl)nc2[nH]ccc12 [Example 21, 4-[(7R)-6-{6-chloro-1H-pyrrolo[2,3-b]pyridin-4-yl}-7-methyl-5H,6H,7H,8H-pyrido[4,3-d]pyrimidin-4-yl]-1-methanesulfonyl-2,2-dimethylpiperazine] |
| 0.128 µM |  |  |  | C[C@@H]1Cc2ncnc(N3CC(S(C)(=O)=O)C3)c2CN1c1ccnc2[nH]ccc12 [Example 36, 3-methanesulfonyl-1-[(7R)-7-methyl-6-{1H-pyrrolo[2,3-b]pyridin-4-yl}-5H,6H,7H,8H-pyrido[4,3-d]pyrimidin-4-yl]azetidine] |
|  |  |  | 0.048 µM | C[C@@H]1Cc2ncnc([C@H]3CCCN(S(C)(=O)=O)C3)c2CN1c1cc(Cl)nc2[nH]ccc12 (single isomer, unassigned) [Example 51b] |

Further lines, the compound ahead of its results:

| SMILES | IC50 [1, 2] | IC50 (ATR/ATRIP complex; [3]) | IC50 (ATR/ATRIP complex; [4]) | IC50 ([1]; HT-29 cells) |
| --- | --- | --- | --- | --- |
| C[C@@H]1Cc2ncnc(C3CCN(S(C)(=O)=O)CC3)c2CN1c1ccnc2[nH]ccc12 [Example 6, (R)-7-Methyl-4-(1-(methylsulfonyl)piperidin-4-yl)-6-(1H-pyrrolo[2,3-b]pyridin-4-yl)-5,6,7,8-tetrahydropyrido[4,3-d]pyrimidine bis(trifluoroacetate)] | 0.052 µM | 0.499 µM |  |  |
| C[C@@H]1Cc2ncnc(C3CCCN(S(C)(=O)=O)C3)c2CN1c1ccnc2[nH]ccc12 (single isomer, unassigned) [Example 50a] | 0.055 µM | 1.2 µM |  |  |
| CCOc1cc(N2Cc3c(ncnc3C3CCN(S(C)(=O)=O)CC3)C[C@@H]2CF)c2cc[nH]c2n1 [Example 55a, (R)-6-(6-ethoxy-1H-pyrrolo[2,3-b]pyridin-4-yl)-7-(fluoromethyl)-4-(1-(methylsulfonyl)piperidin-4-yl)-5,6,7,8-tetrahydropyrido[4,3-d]pyrimidine] | 2.36 µM | 25 µM |  |  |
| C[C@@H]1Cc2ncnc(C3CCN(S(C)(=O)=O)CC3)c2CN1c1cc(OCC(F)(F)F)nc2[nH]ccc12 [Example 96, (R)-7-methyl-4-(1-(methylsulfonyl)piperidin-4-yl)-6-(6-(2,2,2-tri-fluoroethoxy)-1H-pyrrolo[2,3-b]pyridin-4-yl)-5,6,7,8-tetrahydro-pyrido[4,3-d]pyrimidine] | 0.022 µM | 0.321 µM |  |  |
| C[C@@H]1Cc2ncnc(N3CCC[C@H](NS(C)(=O)=O)C3)c2CN1c1cc(Cl)nc2[nH]ccc12 [Example 71, N-((S)-1-((R)-6-(6-chloro-1H-pyrrolo[2,3-b]-pyridin-4-yl)-7-methyl-5,6,7,8-tetrahydropyrido-[4,3-d]pyrimidin-4-yl)-piperidin-3-yl)-methanesulfonamide] | 0.007 µM | 0.073 µM |  |  |
| C[C@@H]1Cc2ncnc(N3C[C@H]4CC[C@@H](C3)[C@H]4NS(C)(=O)=O)c2CN1c1cc(Cl)nc2[nH]ccc12 [Example 39, N-((1R,5S)-(8-syn)-3-((R)-6-(6-chloro-1H-pyrrolo[2,3-b]pyridin-4-yl)-7-methyl-5,6,7,8-tetrahydropyrido[4,3-d]pyrimidin-4-yl)-3-azabicyclo[3.2.1]octan-8-yl)methanesulfonamide] | 0.027 µM |  |  |  |
| C[C@@H]1Cc2ncnc(C3CCN(S(C)(=O)=O)CC3)c2CN1c1ncnc2[nH]ccc12 [Example 43, (R)-7-methyl-4-(1-(methylsulfonyl)piperidin-4-yl)-6-(7H-pyrrolo[2,3-d]pyrimidin-4-yl)-5,6,7,8-tetrahydropyrido[4,3-d] pyrimidine] |  |  | 1 to 10 µM |  |
| C[C@@H]1Cc2ncnc([C@@H]3CCCN(S(C)(=O)=O)C3)c2CN1c1cc(Cl)nc2[nH]ccc12 (single isomer, unassigned) [Example 51a] |  |  |  | 0.011 µM |
| C[C@@H]1Cc2ncnc(N3CC(NS(C)(=O)=O)C3)c2CN1c1cc(Cl)nc2[nH]ccc12 [Example 35, N-{1-[(7R)-6-{6-chloro-1H-pyrrolo[2,3-b]pyridin-4-yl}-7-methyl-5H,6H,7H,8H-pyrido[4,3-d]pyrimidin-4-yl]azetidin-3-yl}methanesulfonamide] | 0.034 µM |  |  |  |
| C[C@@H]1Cc2ncnc(N3CCC(S(C)(=O)=O)CC3)c2CN1c1ccnc2[nH]ccc12 [Example 88, (R)-7-methyl-4-(4-(methylsulfonyl)-piperidin-1-yl)-6-(1H-pyrrolo[2,3-b]pyridin-4-yl)-5,6,7,8-tetrahydro-pyrido[4,3-d]pyrimidine] |  | 0.615 µM |  |  |
